Here are results for 42 substances from patent publication US11840686B2, “Modulation of prekallikrein (PKK) expression” (Ionis Pharmaceuticals, Inc., priority 2013, dated 2023).

Strand notation (5' to 3'): a small letter for the sugar, then the base; units joined by * are phosphorothioate-linked, units joined directly phosphodiester-linked; [ ] holds rarer units or linkages, { } end groups; capitals alone tell only the bases. e = 2'-O-(2-methoxyethyl) (MOE); k = constrained ethyl (cEt); [5mC] = 5-methylcytosine; d = 2'-deoxy (DNA)

As a reminder, the % inhibition is the relative decrease from the control value, in per cent. A high value points to strong suppression.

The test system of this data set is human PKK mRNA. Put plainly: Antisense inhibition of human PKK mRNA in HepaRG cells, 1,000 nM, MOE/deoxy/cEt oligonucleotides (Example 3). The data set is classed as cell-based. In short, it runs like this: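 Readout is percent PKK mRNA reduction against untreated controls, by real-time PCR (RTS3454) adjusted for total RNA via RIBOGREEN. Oligonucleotides, phosphorothioate gapmers of 16 nucleosides with cEt, MOE and deoxy sugars, were delivered at 1,000 nM by electroporation to 20,000 HepaRG cells/well for roughly 24 h.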

Setting [1] is: PKK mRNA, HepaRG cells, 1,000 nM antisense oligonucleotide, Table 31.
Where [2] appears, read: HepaRG cells, electroporation with 1,000 nM antisense oligonucleotide, approx. 24 hours, PKK mRNA by RT-PCR (RTS3454), relative to untreated control cells, Table 26 experiment.
Where [3] appears, read: Table 30, human PKK mRNA, HepaRG cells, 1,000 nM antisense oligonucleotide.
The mark [4] stands for this setting: Table 27, HepaRG cells, 1,000 nM antisense oligonucleotide, human PKK mRNA.
[5] abbreviates: Table 19, HepaRG cells, electroporation with 1,000 nM antisense oligonucleotide, approximately 24 hours, PKK mRNA by RT-PCR (RTS3454), relative to untreated control cells.
The mark [6] stands for this setting: HepaRG cells, electroporation with 1,000 nM antisense oligonucleotide, approximately 24 hours, primer probe set RTS3454, relative to untreated control cells, experiment of Table 23.
Where [7] appears, read: HepaRG cells, electroporation with 1,000 nM antisense oligonucleotide, approx. 24 hours, PKK mRNA by RT-PCR (RTS3454), relative to untreated control cells, Table 25 experiment.
Setting [8] is: Table 28, HepaRG cells, 1,000 nM antisense oligonucleotide, human PKK mRNA.
The mark [9] stands for this setting: HepaRG cells, 1,000 nM antisense oligonucleotide, Table 29.

Turning to “548666 (antisense eT*e[5mC]*kT*d[5mC]*d[5mC]*dA*dT*dA*dG*dT*dG*dA*dG*kA*k[5mC]*eG) [compound 548666]”, the “% inhibition” value under setting [1] is on record as 1%.

Consider “548291 (e[5mC]*e[5mC]*kT*dG*dT*dT*dA*dG*dA*dG*dT*dT*dG*kG*k[5mC]*e[5mC]; antisense) [compound 548291]”, for which, under setting [2], the “% inhibition” value came to 35%.

Regarding “548400 (eG*eG*kG*d[5mC]*dT*d[5mC]*d[5mC]*dT*dA*dT*dT*d[5mC]*d[5mC]*kA*k[5mC]*e[5mC]; antisense) [compound 548400]”, the “% inhibition” value under setting [3] came to 13%.

Consider “548352 (antisense eG*eA*kG*dA*dG*dA*dG*dA*dT*dG*dT*dT*d[5mC]*k[5mC]*k[5mC]*eT) [compound 548352]”, for which, under setting [4], the “% inhibition” value is 47%.

Turning to “548629 (antisense e[5mC]*e[5mC]*k[5mC]*dA*dT*d[5mC]*dT*dT*dG*dG*dG*dA*d[5mC]*kT*kT*eT) [compound 548629]”, the “% inhibition” value under setting [1] came to 44%.

With “547879 (antisense eT*e[5mC]*kA*dA*d[5mC]*dA*d[5mC]*dT*dG*d[5mC]*dT*dA*dA*k[5mC]*k[5mC]*eT) [compound 547879]”, the “% inhibition” value (Table 20, HepaRG cells, electroporation with 1,000 nM antisense oligonucleotide, approximately 24 hours, PKK mRNA by RT-PCR (RTS3454), relative to untreated control cells) came to 69% and the “% inhibition” value (Table 22 experiment, HepaRG cells, electroporation with 1,000 nM antisense oligonucleotide, approx. 24 hours, PKK mRNA by RT-PCR (RTS3454), relative to untreated control cells) was found to be 65%.

For “548097 (antisense eT*eG*k[5mC]*dT*d[5mC]*d[5mC]*d[5mC]*dT*dG*d[5mC]*dG*dG*dG*k[5mC]*kA*e[5mC]) [compound 548097]”, under setting [5], the “% inhibition” value was 2%.

Turning to “548322 (eA*eG*kG*dG*dA*dA*dA*dT*dT*dA*dG*dA*dG*kG*k[5mC]*eA; antisense) [compound 548322]”, the “% inhibition” value under setting [4] stood at 38%.

As for “548141 (eG*e[5mC]*kA*dG*dA*dT*dG*dA*dG*dG*dA*d[5mC]*d[5mC]*k[5mC]*k[5mC]*e[5mC]; antisense) [compound 548141]”, the “% inhibition” value under setting [5] amounted to 66%.

For “547974 (antisense eA*eA*kA*dG*dT*d[5mC]*dA*dA*d[5mC]*dT*d[5mC]*d[5mC]*d[5mC]*kG*kG*eG) [compound 547974]”, the “% inhibition” value under setting [6] is 52%.

For the substance “548160 (eT*e[5mC]*kG*d[5mC]*dA*dT*dT*dG*dT*d[5mC]*dA*dG*d[5mC]*k[5mC]*k[5mC]*e[5mC]; antisense) [compound 548160]”, the “% inhibition” value under setting [7] stood at 60%.

As for “548393 (e[5mC]*eG*k[5mC]*dT*dT*d[5mC]*dA*dG*dG*dA*dA*dA*dG*k[5mC]*kG*eA; antisense) [compound 548393]”, the “% inhibition” value under setting [3] came out at 26%.

Turning to “547978 (antisense e[5mC]*eT*kT*dG*dG*d[5mC]*dA*dA*dA*d[5mC]*dA*dT*dT*k[5mC]*kA*e[5mC]) [compound 547978]”, the “% inhibition” value under setting [6] is listed as 71%.

Turning to “548378 (eG*e[5mC]*kA*dA*dG*dA*dT*dG*d[5mC]*dA*dT*dG*d[5mC]*kA*kG*e[5mC]; antisense) [compound 548378]”, under setting [4], the “% inhibition” value came to 49%.

Take “548255 (antisense e[5mC]*e[5mC]*k[5mC]*d[5mC]*dA*dT*dG*d[5mC]*dA*dT*dA*d[5mC]*dT*k[5mC]*kG*e[5mC]) [compound 548255]”: under setting [2], the “% inhibition” value turned out to be 38%.

“548339 (antisense eA*e[5mC]*kA*dT*dG*dT*dG*dG*dG*dA*dT*d[5mC]*dA*kG*kA*eG) [compound 548339]”: under setting [4], the “% inhibition” value was found to be 37%.

Take “548678 (antisense eG*eA*kG*dT*dT*dA*d[5mC]*d[5mC]*dT*dT*dA*d[5mC]*dA*kA*kG*e[5mC]) [compound 548678]”: the “% inhibition” value under setting [1] is given as 22%.

On to “548094 (antisense eG*eT*kT*dT*dG*d[5mC]*dA*dA*dA*d[5mC]*dT*dA*dA*kG*kG*eG) [compound 548094]”, for which, under setting [5], the “% inhibition” value is reported as 74%.

Regarding “548262 (antisense e[5mC]*e[5mC]*kT*dA*dT*d[5mC]*d[5mC]*dG*dT*dG*dT*dT*d[5mC]*kA*kG*e[5mC]) [compound 548262]”, the “% inhibition” value under setting [2] was 73%.

As for “548167 (eT*eG*k[5mC]*dG*dA*d[5mC]*d[5mC]*dT*d[5mC]*dG*d[5mC]*dA*dT*kT*kG*eT; antisense) [compound 548167]”, the “% inhibition” value under setting [7] came out at 36%.

For “548382 (eG*eA*kG*d[5mC]*dA*dA*dA*dT*dA*d[5mC]*dA*dG*dT*k[5mC]*k[5mC]*eA; antisense) [compound 548382]”, under setting [3], the “% inhibition” value is given as 19%.

In the case of “548085 (antisense eT*eA*kA*dG*dG*dG*dA*d[5mC]*d[5mC]*dA*d[5mC]*d[5mC]*dT*kG*kA*eA) [compound 548085]”, the “% inhibition” value under setting [5] is recorded as 8%.

As to “548480 (eG*e[5mC]*k[5mC]*dA*d[5mC]*dG*d[5mC]*d[5mC]*d[5mC]*dT*dT*dA*dG*k[5mC]*kA*eG; antisense) [compound 548480]”, under setting [8], the “% inhibition” value amounted to 20%.

With “548139 (eA*eG*kA*dT*dG*dA*dG*dG*dA*d[5mC]*d[5mC]*d[5mC]*d[5mC]*k[5mC]*k[5mC]*eA; antisense) [compound 548139]”, the “% inhibition” value under setting [5] came out at 56%.

Take “548448 (eT*e[5mC]*kA*d[5mC]*dT*dG*dT*d[5mC]*d[5mC]*dT*dA*dT*dG*kT*k[5mC]*eA; antisense) [compound 548448]”: the “% inhibition” value under setting [3] worked out at 61%.

Consider “548683 (antisense eA*eG*kT*dA*dT*d[5mC]*dT*d[5mC]*dA*dT*dG*dT*dG*k[5mC]*k[5mC]*eT) [compound 548683]”, for which the “% inhibition” value under setting [1] stood at 46%.

“548452 (eT*eA*kT*dA*dT*d[5mC]*dA*d[5mC]*dT*dG*dT*dA*d[5mC]*k[5mC]*kT*eA; antisense) [compound 548452]”: the “% inhibition” value under setting [3] is listed as 65%.

Regarding “548256 (antisense eG*e[5mC]*kT*d[5mC]*d[5mC]*d[5mC]*d[5mC]*dA*dT*dG*d[5mC]*dA*dT*kA*k[5mC]*eT) [compound 548256]”, the “% inhibition” value under setting [2] was found to be 25%.

With “548684 (antisense e[5mC]*eA*kA*dG*dA*d[5mC]*d[5mC]*dT*dT*dG*d[5mC]*dT*dT*kG*k[5mC]*e[5mC]) [compound 548684]”, under setting [1], the “% inhibition” value came out at 24%.

Consider “548392 (eG*eT*kA*dG*dA*dG*d[5mC]*dA*dT*dG*dG*dA*dG*k[5mC]*kG*eA; antisense) [compound 548392]”, for which the “% inhibition” value under setting [3] turned out to be 31%.

For the substance “548509 (antisense eT*eG*k[5mC]*dA*dG*dG*dG*d[5mC]*dT*dG*d[5mC]*dG*d[5mC]*kA*kG*eT) [compound 548509]”, the “% inhibition” value under setting [8] is on record as 41%.

With “548638 (antisense e[5mC]*e[5mC]*kT*d[5mC]*dA*dT*dT*dG*d[5mC]*dT*d[5mC]*d[5mC]*dA*k[5mC]*kT*eA) [compound 548638]”, the “% inhibition” value under setting [1] is given as 26%.

As to “547986 (antisense e[5mC]*eA*kG*d[5mC]*dG*dA*dA*dT*d[5mC]*dA*dT*d[5mC]*dT*kT*kT*eG) [compound 547986]”, under setting [6], the “% inhibition” value is recorded as 63%.

As for “548432 (antisense eA*e[5mC]*kT*dG*dT*dA*d[5mC]*d[5mC]*dT*dA*dT*dA*dA*k[5mC]*kT*e[5mC]) [compound 548432]”, under setting [3], the “% inhibition” value is reported as 43%.

As to “548319 (e[5mC]*e[5mC]*kT*d[5mC]*dA*dT*d[5mC]*dT*d[5mC]*dA*dG*dT*dA*kT*kG*eA; antisense) [compound 548319]”, the “% inhibition” value under setting [4] turned out to be 26%.

Take “547813 (eG*eG*kT*dG*dG*dA*dA*dT*dG*dT*dG*d[5mC]*dA*k[5mC]*k[5mC]*eT; antisense) [compound 547813]”: for the setting “Table 21 experiment, HepaRG cells, electroporation with 1,000 nM antisense oligonucleotide, approx. 24 hours, PKK mRNA by RT-PCR (RTS3454), relative to untreated control cells”, the “% inhibition” value came out at 34%.

As to “548553 (antisense e[5mC]*e[5mC]*k[5mC]*dG*dA*dA*dG*dA*dG*dT*d[5mC]*dA*dA*kG*kT*e[5mC]) [compound 548553]”, under setting [9], the “% inhibition” value is 46%.

As for “548287 (eG*eT*k[5mC]*dA*dA*dA*dG*dA*dG*dT*dG*dT*d[5mC]*k[5mC]*kA*e[5mC]; antisense) [compound 548287]”, under setting [2], the “% inhibition” value was 38%.

Regarding “548515 (antisense eA*e[5mC]*k[5mC]*d[5mC]*dG*dT*d[5mC]*dA*dG*d[5mC]*d[5mC]*dT*d[5mC]*kA*kG*e[5mC]) [compound 548515]”, the “% inhibition” value under setting [8] was 59%.

“548375 (eT*e[5mC]*kG*dA*d[5mC]*dT*dT*d[5mC]*dT*d[5mC]*d[5mC]*dT*dG*kT*k[5mC]*eT; antisense) [compound 548375]”: under setting [4], the “% inhibition” value is given as 27%.

Turning to “548581 (eG*eG*kT*dG*dG*dG*dT*dT*dA*dT*d[5mC]*dT*dG*kA*kG*eA; antisense) [compound 548581]”, the “% inhibition” value under setting [9] turned out to be 13%.

Take “548451 (eG*eT*k[5mC]*d[5mC]*dT*dA*dT*dA*dA*d[5mC]*dT*dA*dT*kA*kA*e[5mC]; antisense) [compound 548451]”: the “% inhibition” value under setting [3] turned out to be 0%.
